# Reference: patent US7138361B2, “Herbicidal heterocycles” (E. I. du Pont de Nemours and Company, priority 2000, dated 2006)
# Columns and labels:
# Assay type in all cases: in vivo
# [1] = tested on: Surinam grass (Brachiaria decumbens); experiment: Test C preemergence; conditions: for Plant response rating (0 to 100), Surinam grass: Rate 500 g/ha, visual evaluation after 12 to 14 days
# Summary of the method: (§1)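 Compounds in non-phytotoxic solvent with surfactant applied preemergence to planted seeds and postemergence to plants at 1- to 4-leaf stage (2–18 cm). Kept in greenhouse 12–14 days, then visually rated against controls on a 0 (no effect) to 100 (complete control) scale.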
# [2] = tested on: woolly cupgrass (Eriochloa villosa); experiment: Test C preemergence; conditions: for Plant response rating (0 to 100), Cupgrass, Woolly: Rate 500 g/ha, visual evaluation after 12 to 14 days
# Summary of the method: as §1
# [3] = tested on: soybean (Glycine max); experiment: Test C preemergence; conditions: for Plant response rating (0 to 100), Soybean: Rate 500 g/ha, visual evaluation after 12 to 14 days
# Summary of the method: as §1
# [4] = tested on: cocklebur (Xanthium strumarium); experiment: Test C preemergence; conditions: for Plant response rating (0 to 100), Cocklebur: Rate 500 g/ha, visual evaluation after 12 to 14 days
# Summary of the method: as §1
# [5] = tested on: crabgrass (Digitaria sanguinalis); experiment: Test C preemergence; conditions: for Plant response rating (0 to 100), Crabgrass: Rate 500 g/ha, visual evaluation after 12 to 14 days
# Summary of the method: as §1
# [6] = tested on: common ragweed (Ambrosia elatior); experiment: Test C preemergence; conditions: for Plant response rating (0 to 100), Ragweed, Common: Rate 500 g/ha, visual evaluation after 12 to 14 days
# Summary of the method: as §1
# [7] = tested on: Nightshade; experiment: Test C preemergence
# [8] = tested on: morningglory (Ipomoea hederacea); experiment: Test C preemergence; conditions: for Plant response rating (0 to 100), Morningglory: Rate 500 g/ha, visual evaluation after 12 to 14 days
# Summary of the method: as §1
# [9] = tested on: lambsquarters (Chenopodium album); experiment: Test C preemergence; conditions: for Plant response rating (0 to 100), Lambsquarters: Rate 500 g/ha, visual evaluation after 12 to 14 days
# Summary of the method: as §1
# [10] = tested on: kochia (Kochia scoparia); experiment: Test C preemergence; conditions: for Plant response rating (0 to 100), Kochia: Rate 500 g/ha, visual evaluation after 12 to 14 days
# Summary of the method: as §1
# [11] = tested on: goosegrass (Eleusine indica); experiment: Test C preemergence; conditions: for Plant response rating (0 to 100), Goosegrass: Rate 500 g/ha, visual evaluation after 12 to 14 days
# Summary of the method: as §1
# [12] = tested on: velvetleaf (Abutilon theophrasti); experiment: Test C preemergence; conditions: for Plant response rating (0 to 100), Velvetleaf: Rate 500 g/ha, visual evaluation after 12 to 14 days
# Summary of the method: as §1
# [13] = tested on: corn (Zea mays); experiment: Test C preemergence; conditions: for Plant response rating (0 to 100), Corn: Rate 500 g/ha, visual evaluation after 12 to 14 days
# Summary of the method: as §1
# [14] = tested on: johnsongrass (Sorghum halepense); experiment: Test C preemergence; conditions: for Plant response rating (0 to 100), Johnsongrass: Rate 500 g/ha, visual evaluation after 12 to 14 days
# Summary of the method: as §1
# [15] = tested on: barnyardgrass (Echinochloa crus-galli); experiment: Test B postemergence
# Summary of the method: (§2)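 Greenhouse test: chemicals are formulated in a surfactant-containing non-phytotoxic solvent and applied either preemergence to planted seeds or postemergence to plants 2 to 18 cm tall. Response is rated visually versus controls after 13 to 15 days, 0 meaning no effect and 100 complete control.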
# [16] = tested on: Surinam grass (Brachiaria decumbens); experiment: Test B postemergence
# Summary of the method: as §2
# [17] = tested on: lambsquarters (Chenopodium album); experiment: Test B postemergence; conditions: Rate 125 g/ha, scale 0 to 100, 0 no effect, 100 complete control
# Summary of the method: as §2
# [18] = tested on: velvetleaf (Abutilon theophrasti); experiment: Test B postemergence; conditions: Rate 125 g/ha, scale 0 to 100, 0 no effect, 100 complete control
# Summary of the method: as §2
# [19] = tested on: morning glory (Ipomoea hederacea); experiment: Test B postemergence; conditions: Rate 125 g/ha, scale 0 to 100, 0 no effect, 100 complete control
# Summary of the method: as §2
# [20] = tested on: corn (Zea mays); experiment: Test B postemergence
# Summary of the method: as §2
# [21] = Rate 125 g/ha, scale 0 to 100, 0 no effect, 100 complete control
# [22] = preemergence, Rate 62 g/ha, scale 0 to 100
# [23] = preemergence, Rate 250 g/ha, scale 0 to 100, 0 no effect, 100 complete control
# [24] = Rate 250 g/ha, scale 0 to 100, 0 no effect, 100 complete control
# [25] = Rate 500 g/ha, scale 0 to 100, 0 is no effect, 100 is complete control, 13 to 15 days
structure (smiles),measurement,setting,value
CC(C)(C)c1ccn(C2OCN(c3cccc(OC(F)F)c3)C2=O)n1 (stereo not drawn) [Compound 133],"Plant response rating, Surinam grass",[1]; [21],100
same,"Plant response rating, Surinam grass",[1]; [22],100
same,"Plant response rating (0 to 100), Surinam grass",[1]; preemergence,100
same,"Plant response rating, Surinam grass",[1]; [23],100
same,"Plant response rating, Cupgrass, Woolly",[2]; [21],100
same,"Plant response rating, Cupgrass, Woolly",[2]; [22],100
same,"Plant response rating (0 to 100), Cupgrass, Woolly",[2]; preemergence,100
same,"Plant response rating, Cupgrass, Woolly",[2]; [23],100
same,"Plant response rating, Soybean",[3]; [21],0
same,"Plant response rating, Soybean",[3]; [22],0
same,"Plant response rating (0 to 100), Soybean",[3]; preemergence,0
same,"Plant response rating, Soybean",[3]; [23],0
same,"Plant response rating, Cocklebur",[4]; [21],0
same,"Plant response rating, Cocklebur",[4]; [22],0
same,"Plant response rating (0 to 100), Cocklebur",[4]; preemergence,0
same,"Plant response rating, Cocklebur",[4]; [23],0
same,"Plant response rating, Crabgrass",[5]; [21],100
same,"Plant response rating, Crabgrass",[5]; [22],100
same,"Plant response rating (0 to 100), Crabgrass",[5]; preemergence,100
same,"Plant response rating, Crabgrass",[5]; [23],100
same,"Plant response rating, Ragweed, Common",[6]; [21],0
same,"Plant response rating, Ragweed, Common",[6]; [22],0
same,"Plant response rating (0 to 100), Ragweed, Common",[6]; preemergence,0
same,"Plant response rating, Ragweed, Common",[6]; [23],0
same,"Plant response rating, Nightshade","[7]; Rate 62 g/ha, scale 0 to 100",0
same,"Plant response rating, Nightshade",[7]; [21],0
same,"Plant response rating, Nightshade",[7]; [24],20
same,"Plant response rating, Morningglory",[8]; [21],0
same,"Plant response rating, Morningglory",[8]; [22],0
same,"Plant response rating (0 to 100), Morningglory",[8]; preemergence,30
same,"Plant response rating, Morningglory",[8]; [23],20
same,"Plant response rating, Lambsquarters",[9]; [21],100
same,"Plant response rating, Lambsquarters",[9]; [22],100
same,"Plant response rating (0 to 100), Lambsquarters",[9]; preemergence,100
same,"Plant response rating, Lambsquarters",[9]; [23],100
same,"Plant response rating, Kochia",[10]; [21],100
same,"Plant response rating, Kochia",[10]; [22],100
same,"Plant response rating (0 to 100), Kochia",[10]; preemergence,100
same,"Plant response rating, Kochia",[10]; [23],100
same,"Plant response rating, Goosegrass",[11]; [21],100
same,"Plant response rating, Goosegrass",[11]; [22],100
same,"Plant response rating (0 to 100), Goosegrass",[11]; preemergence,100
same,"Plant response rating, Goosegrass",[11]; [23],100
same,"Plant response rating, Velvetleaf",[12]; [21],20
same,"Plant response rating, Velvetleaf",[12]; [22],0
same,"Plant response rating (0 to 100), Velvetleaf",[12]; preemergence,30
same,"Plant response rating, Velvetleaf",[12]; [23],20
same,"Plant response rating, Corn",[13]; [22],100
same,"Plant response rating (0 to 100), Corn",[13]; preemergence,100
same,"Plant response rating, Corn",[13]; [23],100
same,"Plant response rating, Johnsongrass",[14]; [21],100
same,"Plant response rating, Johnsongrass",[14]; [22],80
same,"Plant response rating (0 to 100), Johnsongrass",[14]; preemergence,100
same,"Plant response rating, Johnsongrass",[14]; [23],100
same,"Plant response rating, Barnyardgrass",[15]; [21],80
same,"Plant response rating, Barnyardgrass",[15]; [25],100
same,"Plant response rating, Surinam grass",[16]; [21],0
same,"Plant response rating, Surinam grass",[16]; [25],40
same,"Plant response rating, Lambsquarters",[17],100
same,"Plant response rating, Velvetleaf",[18],0
same,"Plant response rating, Morningglory",[19],0
same,"Plant response rating, Corn",[20]; [21],0
same,"Plant response rating, Corn",[20]; [25],0
CCC(C)c1ccn(C2OCN(c3cccc(OC(F)F)c3)C2=O)n1 (stereo not drawn) [Compound 134],"Plant response rating, Surinam grass",[1]; [21],100
same,"Plant response rating, Surinam grass",[1]; [22],100
same,"Plant response rating (0 to 100), Surinam grass",[1]; preemergence,100
same,"Plant response rating, Surinam grass",[1]; [23],100
same,"Plant response rating, Cupgrass, Woolly",[2]; [21],100
same,"Plant response rating, Cupgrass, Woolly",[2]; [22],100
same,"Plant response rating (0 to 100), Cupgrass, Woolly",[2]; preemergence,100
same,"Plant response rating, Cupgrass, Woolly",[2]; [23],100
same,"Plant response rating, Soybean",[3]; [21],0
same,"Plant response rating, Soybean",[3]; [22],0
same,"Plant response rating (0 to 100), Soybean",[3]; preemergence,20
same,"Plant response rating, Soybean",[3]; [23],0
same,"Plant response rating, Cocklebur",[4]; [21],0
same,"Plant response rating, Cocklebur",[4]; [22],0
same,"Plant response rating (0 to 100), Cocklebur",[4]; preemergence,0
same,"Plant response rating, Cocklebur",[4]; [23],0
same,"Plant response rating, Crabgrass",[5]; [21],100
same,"Plant response rating, Crabgrass",[5]; [22],100
same,"Plant response rating (0 to 100), Crabgrass",[5]; preemergence,100
same,"Plant response rating, Crabgrass",[5]; [23],100
same,"Plant response rating, Ragweed, Common",[6]; [21],0
same,"Plant response rating, Ragweed, Common",[6]; [22],0
same,"Plant response rating (0 to 100), Ragweed, Common",[6]; preemergence,40
same,"Plant response rating, Ragweed, Common",[6]; [23],0
same,"Plant response rating, Nightshade","[7]; Rate 62 g/ha, scale 0 to 100",0
same,"Plant response rating, Nightshade",[7]; [21],10
same,"Plant response rating, Nightshade",[7]; [24],30
same,"Plant response rating, Morningglory",[8]; [21],0
same,"Plant response rating, Morningglory",[8]; [22],0
same,"Plant response rating (0 to 100), Morningglory",[8]; preemergence,0
same,"Plant response rating, Morningglory",[8]; [23],0
same,"Plant response rating, Lambsquarters",[9]; [21],100
same,"Plant response rating, Lambsquarters",[9]; [22],100
same,"Plant response rating (0 to 100), Lambsquarters",[9]; preemergence,100
same,"Plant response rating, Lambsquarters",[9]; [23],100
same,"Plant response rating, Kochia",[10]; [21],100
same,"Plant response rating, Kochia",[10]; [22],100
same,"Plant response rating (0 to 100), Kochia",[10]; preemergence,100
same,"Plant response rating, Kochia",[10]; [23],100
same,"Plant response rating, Goosegrass",[11]; [21],100
same,"Plant response rating, Goosegrass",[11]; [22],100
same,"Plant response rating (0 to 100), Goosegrass",[11]; preemergence,100
same,"Plant response rating, Goosegrass",[11]; [23],100
same,"Plant response rating, Velvetleaf",[12]; [21],20
same,"Plant response rating, Velvetleaf",[12]; [22],20
same,"Plant response rating (0 to 100), Velvetleaf",[12]; preemergence,20
same,"Plant response rating, Velvetleaf",[12]; [23],20
same,"Plant response rating, Corn",[13]; [21],20
same,"Plant response rating (0 to 100), Corn",[13]; preemergence,100
same,"Plant response rating, Corn",[13]; [23],100
same,"Plant response rating, Johnsongrass",[14]; [21],100
same,"Plant response rating, Johnsongrass",[14]; [22],100
same,"Plant response rating (0 to 100), Johnsongrass",[14]; preemergence,100
same,"Plant response rating, Johnsongrass",[14]; [23],100
same,"Plant response rating, Barnyardgrass",[15]; [21],90
same,"Plant response rating, Barnyardgrass",[15]; [25],100
same,"Plant response rating, Surinam grass",[16]; [21],20
same,"Plant response rating, Surinam grass",[16]; [25],60
same,"Plant response rating, Lambsquarters",[17],100
same,"Plant response rating, Velvetleaf",[18],0
same,"Plant response rating, Morningglory",[19],10
same,"Plant response rating, Corn",[20]; [21],0
same,"Plant response rating, Corn",[20]; [25],20
